Measured values reported in patent publication US11292787B2, “Five-membered-fused-six-membered aza-aromatic ring compound, preparation method thereof, pharmaceutical composition and application thereof” (XIAMEN UNIVERSITY, priority 2017, dated 2022).
“Also recorded” adds a separate entry of the source.

Assays:
MCF-7 cells = test: Soft agar colony formation, MCF-7 cells (K-RAS-WT); assay type: cell-based; conditions: K-RAS-WT genetic background, FIG. 2a
Protocol: (§1) The specific method was as follows:
(§2) 1) 1% agar was formulated, and autoclaved. 1% agar was heated and melted in a boiling water bath before use, and then cooled in a 40° C. water bath (by holding in the bath for at least 30 minutes, the agar was cooled to a temperature of 40° C.); at the same time, 2×DMEM/FBS was placed in a warm bath. 2) A bottom agar with 0.5% agar was prepared by mixing 1% agar with 2×DMEM/FBS in a sterile tube at a volume ratio of 1:1. The mixed solution was added to a 6-well plate rapidly at 1.5 ml per well, shaked slightly, and placed at room temperature for solidification (after solidification, the bottom agar could be stored at 4° C. for 1 week. Before use, it was placed at room temperature for at least 30 minutes to return to room temperature).
(§3) 1) A mixed solution with a final concentration of 0.3% agar+1×DMEM/FBS was formulated in a sterile tube using 1% agar, 2×DMEM/FBS and sterile water at a temperature of 40° C. The prepared mixed solution was placed in a 40° C. water bath for use.
(§4) 2) The cells were trypsinized and counted. The cell density was adjusted according to the needs of the experiment. […]

K-RAS-G12V = molecular target: T1, K-RAS-G12V (Homo sapiens, UniProt P01116, G12V); test: Degradation of overexpressed K-RAS-G12V protein in 293T cells (FIG. 1a); assay type: cell-based; conditions: 293T cells overexpressing K-RAS-G12V
T1 construct: expressed in transfected cells; host or cells: 293T
Protocol: (§5) Inhibitory activity of compounds on K-RAS was evaluated by the degradation rate of protein level of administration group relative to control group (Cell Rep 2014, 7, 871-882).

K-Ras protein = molecular target: T2, K-Ras protein (Homo sapiens, UniProt P01116, G12V); test: K-Ras protein degradation rate by Western blot in SW-620 cells; assay type: cell-based; conditions: for percent K-Ras protein degradation (single point) at 10 µM: SW-620 cells, 24 h, Western blot, relative to DMSO control, read-out: Degradation rate of compounds at 10 μM on Ras protein (%)
T2 construct: in SW620 cells, compound I-a-1 can effectively enhance the degradation of endogenous K-RAS-G12V proteins; endogenous in cells; host or cells: SW-620
Protocol: as §5, §1
1. Cell plating: SW-620 cells in logarithmic growth phase were inoculated into a 24-well plate at 2×10^4/well, and cultured in a 37° C., 5% CO2 incubator.
2. Administering drug to cells: after 24 h of culture, various drug stocks […]; the original solution in the 24-well plate was discarded, to which was added the obtained drug solution, with the DMSO group as the blank control; after the drug solution was added, the 24-well plate was transferred to the 37° C. CO2 incubator to continue the culture.
3. Detection of K-Ras protein level: after 24 h of administration and culture, the liquid in the well was discarded, the cells were routinely collected, and rinsed twice with 1×PBS, a cell lysate was added to extract the total cellular protein, and the protein concentration was determined by BCA method. 30 μg of the protein sample was taken for SDS-polyacrylamide gel electrophoretic transmembrane, the membrane was blocked sequentially, incubated with K-Ras antibody (1:1000) and internal reference antibody β-actin (1:2000) respectively overnight at 4° C., rinsed with TBST for 5 min×3 times, then incubated with the addition of the corresponding horseradish peroxidase-labeled secondary antibody (1:5000) for 1-2 h, and rinsed with TBST for 5 min×3 times. Finally, chemiluminescence image was acquired using Image Lab software.
4. Calculation of single-point K-Ras protein degradation rate: quantitative and calibration analysis of K-Ras and β-actin were conducted using Image-Lab software, and then the intracellular K-Ras degradation rate was calculated according to the following formula: single-point K-Ras protein degradation rate (%)=(control group−administration group)/control group×100%. The drug with degradation rate ≥20% was selected for soft agar experiment.

HT-29 cells = test: Soft agar colony formation, HT-29 cells (RAF mutation); assay type: cell-based; conditions: RAF mutation genetic background, FIG. 2c
Protocol: as §1, §2, §3, §4

SW620 xenograft = test: Nude mouse SW620 xenograft tumor experiment; assay type: in vivo, nude mice; conditions: tail vein, 40 mg/kg, 80 mg/kg per day, 10 days
Protocol: as §1
1. 4-5 weeks old nude mice were subcutaneously injected with a SW620 cell suspension with a cell number controlled at about 5×10^6.
2. The tumor-bearing condition was observed after two to three days, and the mice were administered when the tumor volume was about 150 mm^3.
4. The mice were injected intravenously regularly with drug or control solvent every day, and the daily tumor volume was recorded.
5. The mice were continuously administered for 10 days, and the changes in tumor volume of the drug-administered group and the control group were observed.
6. 10 days later, eyeball blood was taken from all mice, and blood samples were kept for subsequent testing. After the mice were killed, the subcutaneously growing tumors were completely taken out, the tumor weights were recorded, and the tumors were stored in liquid nitrogen for subsequent testing.

SW620 cells = test: Soft agar colony formation, SW620 cells (K-RAS-G12V); assay type: cell-based; conditions: K-RAS-G12V genetic background, FIG. 2b
Protocol: as §1, §2, §3, §4

O=C(NCc1c(F)cccc1Cl)c1csc(-c2n[nH]c3ccccc23)c1 [I-a-1]
colony formation on soft agar (MCF-7 cells): can effectively inhibit colony formation of the cells | degradation of exogenous overexpressed RAS (K-RAS-G12V) protein (K-RAS-G12V): can effectively enhance the degradation of exogenous overexpressed RAS proteins and has good concentration dependence | percent K-Ras protein degradation (single point) at 10 µM (K-Ras protein): 52% | degradation of endogenous K-RAS-G12V protein (K-Ras protein; SW620 cells, FIG. 1b): can effectively enhance the degradation of endogenous K-RAS-G12V proteins and has good concentration dependence | colony formation on soft agar (HT-29 cells): does not inhibit colony formation of the cells | tumor growth (tumor volume) (SW620 xenograft; FIG. 3a): could effectively inhibit the growth of cancer cells with RAS positive genetic background in nude mice; also recorded: can effectively inhibit the increase of tumor volume and has good dose dependence | final tumor weight (SW620 xenograft; FIG. 3b): obviously smaller than that of the control group

O=C(NCc1c(F)cccc1Cl)c1csc(-c2n[nH]c3ncccc23)c1 [III-a-1]
percent K-Ras protein degradation (single point) at 10 µM (K-Ras protein): 21% | colony formation on soft agar (SW620 cells): can effectively inhibit colony formation of the cells
